Legend:
Assay type in all cases: cell-based, human
[1] = system: NOTCH signaling in iETS1 hESC cultures; experiment: Hematopoiesis following ETS1 upregulation in the presence of NOTCH signaling blockade; conditions: DOX-treated iETS1 hESC cultures; DAPT 10 μM, DLL4 blocking antibody 10 μg/ml
Excerpt: To confirm the role of NOTCH activation in promoting definitive hematopoiesis by ETS1, we evaluated hematopoiesis following ETS1 upregulation in the presence of NOTCH signaling inhibitor DAPT, and DLL4 neutralizing antibodies (FIG. 4E).
(§1) HB-CFCs were detected as described previously^54. HB-CFCs were detected using the semisolid colony-forming serum-free medium (CF-SFM) containing 40% ES-Cult M3120 methylcellulose (2.5% solution in IMDM, Stem Cell Technologies), 25% StemSpan™ serum-free expansion medium (SFEM, Stem Cell Technologies), 25% human endothelial serum-free medium (ESFM, Invitrogen), 10% BIT 9500 supplement (Stem Cell Technologies), GlutaMAX™ (1/100 dilution, Invitrogen), Ex-Cyte™ (1/1000 dilution, Millipore), 100 μM MTG, 50 μg/ml ascorbic acid and 20 ng/ml FGF (Peprotech). Hematopoietic CFCs were detected using serum containing H4435 MethoCult with FGF, SCF, IL-3, IL-6 and EPO (Stem Cell Technologies).
Cells were analyzed using MACSQuant Analyzer (Miltenyi Biotec) and FlowJo software (Tree star).
Notch signaling was blocked by DAPT (γ-secretase inhibitor/GSI, 10 μM, Cayman Chemicals) or DLL4 blocking antibody (10 μg/ml, Creative BioLabs)

[2] = system: iETS1-hESCs (H1, DOX-inducible ETS1 transgene); experiment: Primitive and definitive hematopoiesis from DOX-treated iETS1-hESCs (HB-CFC, HE, T cell, RBC cultures); conditions: CD43+ cells subcultured on OP9-DLL4
Procedure: To define which type of hematopoiesis is affected by ETS1 overexpression, we evaluated the effect of DOX treatment on i) hemangioblast (HB) CFCs that reflect the primitive wave of hematopoiesis^37, 38 and ii) on T lymphocytes and β-hemoglobin-producing red blood cells that reflect definitive hematopoiesis (FIG. 3A)^37, 39. […] This effect was more profound when cultures were treated with DOX from day 0 through day 3 to ensure maximum ETS1 overexpression on day 3 (FIG. 3B and FIGS. 9B-9C). […] To determine the effect of ETS1 upregulation on T cell potential, we collected CD43^+ cells from DOX+ and DOX− cultures and subcultured on OP9−DLL4 stromal cells. […]
as §1, with “Technologies). […]” for “Technologies).”

[3] = system: DLL4+ arterial type HE from hPSCs; experiment: Arterial HE specification in hESC differentiation cultures with modulation of MAPK/ERK signaling (flow cytometry); conditions: differentiation cultures treated on days 3 through day 6; LY294002 2 μM, U0126 1 μM
Procedure: (§2) To determine whether modulating MAPK/ERK signaling affects arterial specification of HE from hPSCs, we treated differentiation cultures on days 3 through day 6 with PI3K inhibitor LY294002, or MEK1 and MEK2 inhibitor U0126 (FIG. 6A).
H1 hESC line, the iETS1 H1 hESC line and the tdTomato H1 hESCs line were maintained on Matrigel™ in mTeSR1™ medium. Cells were passaged every 3-4 days using 0.5 mM EDTA in PBS. The hESC lines were differentiated on ColIV coated plate as previously described in details^26.
(§3) MAPK/ERK pathway was activated using LY294002 (2 μM, Cayman Chemicals) and was inhibited using U0126 (1 μM, Cayman Chemicals)

[4] = system: CD235a/CD41a-CD45+ hematopoietic progenitors from hESCs; experiment: Hematopoietic progenitor production and hematopoietic CFC assay after modulation of MAPK/ERK signaling; conditions: ERK pathway activated (LY294002 2 μM) or inhibited (U0126 1 μM), days 3-6
Procedure: as §2, §3

[5] = system: T lymphoid potential of hESC cultures; experiment: T cell differentiation on OP9-DLL4 after LY294002 or U0126 treatment; conditions: cultures treated with LY294002 2 μM or U0126 1 μM
Procedure: as §2
T cell differentiation of hESC-derived hematopoietic precursors was performed on the OP9−DLL4 in T cell differentiated medium consisting of α-MEM (Gibco) supplemented with 20% FBS (Hyclone), 5 ng/ml FLT3L, 5 ng/ml IL-7 and 10 ng/ml SCF (all from PeproTech) as described previously^26. […] Cultures were fed with complete media changes weekly.
as §3

## C[C@H](NC(=O)Cc1cc(F)cc(F)c1)C(=O)N[C@H](C(=O)OC(C)(C)C)c1ccccc1 [DAPT]
[1]
  effect of ETS1 upregulation on hematopoiesis (blood production and CFC potential): abrogated effect

## C[C@H]1c2cccc(O)c2C(=O)C2=C(O)[C@]3(O)C(=O)C(C(N)=O)=C(O)[C@@H](N(C)C)[C@@H]3[C@@H](O)[C@@H]21 [DOX, doxycycline]
[2]
  number of T lymphoid cells per 10^4 of CD43 cells, DOX+ versus DOX- cultures: ~8 fold

## N#CC(=C(/N)Sc1ccccc1N)/C(C#N)=C(\N)Sc1ccccc1N [U0126]
[3]
  production of DLL4+ arterial type HE, including the DLL4+CXCR4+ fraction: almost completely abrogated formation
[4]
  production of multipotent CD235a/CD41a-CD45+ hematopoietic progenitors and CFC potential: abrogated production
[5]
  T lymphoid potential: entirely abrogated

Source: US11345895B2, “Induction of arterial-type of hemogenic endothelium (AHE) and enhancement of T cell production from PSCs through overexpression of ETS factors or modulating MAPK/ERK signalling pathways” (Wisconsin Alumni Research Foundation, priority 2016, dated 2022)
